Experimental data from patent US20250154144A1 (CHILDREN'S HOSPITAL MEDICAL CENTER, priority 2021, published 2025).

Tests used:
[1] = molecular target: T1, FLT3 ITD, F691L (Homo sapiens, UniProt P36888, F691L, form not given); assay: DiscoverX KINOMEscan competition binding, FLT3 ITD, F691L; details: read-out: FLT3 ITD, F691L Kd
T1 sequence (P36888 1-993 F691L): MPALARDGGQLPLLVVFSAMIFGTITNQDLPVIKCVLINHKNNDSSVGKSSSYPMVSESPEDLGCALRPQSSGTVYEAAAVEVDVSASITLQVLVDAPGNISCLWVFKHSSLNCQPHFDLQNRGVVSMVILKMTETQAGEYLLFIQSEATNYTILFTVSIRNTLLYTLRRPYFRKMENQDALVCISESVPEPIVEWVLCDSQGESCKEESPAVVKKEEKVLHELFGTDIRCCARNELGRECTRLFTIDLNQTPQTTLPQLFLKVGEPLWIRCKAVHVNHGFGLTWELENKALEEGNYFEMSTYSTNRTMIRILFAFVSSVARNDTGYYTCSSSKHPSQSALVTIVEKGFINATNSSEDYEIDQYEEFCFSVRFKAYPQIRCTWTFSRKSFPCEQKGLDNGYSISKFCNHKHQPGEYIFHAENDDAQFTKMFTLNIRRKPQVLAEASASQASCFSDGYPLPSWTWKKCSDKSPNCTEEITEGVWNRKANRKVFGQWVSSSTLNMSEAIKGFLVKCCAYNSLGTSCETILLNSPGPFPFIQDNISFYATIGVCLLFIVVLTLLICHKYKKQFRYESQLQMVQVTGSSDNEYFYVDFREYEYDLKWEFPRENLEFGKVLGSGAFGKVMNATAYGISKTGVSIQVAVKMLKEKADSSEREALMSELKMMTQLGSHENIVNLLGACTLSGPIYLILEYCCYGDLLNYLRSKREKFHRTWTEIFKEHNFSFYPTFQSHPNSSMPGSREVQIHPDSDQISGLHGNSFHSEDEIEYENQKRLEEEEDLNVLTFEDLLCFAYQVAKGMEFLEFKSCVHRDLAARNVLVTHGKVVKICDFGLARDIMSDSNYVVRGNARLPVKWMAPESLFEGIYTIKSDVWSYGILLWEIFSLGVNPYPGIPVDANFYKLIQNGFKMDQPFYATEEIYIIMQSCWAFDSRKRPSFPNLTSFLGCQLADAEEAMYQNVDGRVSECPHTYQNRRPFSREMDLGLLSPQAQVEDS

[2] = system: MOLM14 D835Y cells; assay: cells; assay type: cell-based; details: Homo sapiens, MOLM-14, 48 h, 48 hours, Cell Titer Glo; read-out: MOLM14 D835Y IC50
[3] = molecular target: IRAK1 (Homo sapiens, UniProt P51617); assay: RBC HotSpot Kinase Assay, IRAK1; details: IRAK1 IC50
[4] = molecular target: T2, FLT3 N841I (Homo sapiens, UniProt P36888, N841I); assay: DiscoverX KINOMEscan competition binding, FLT3 N841I
T2 construct: purchased DiscoverX (KINOMEscan)
T2 sequence (P36888 27-993 N841I): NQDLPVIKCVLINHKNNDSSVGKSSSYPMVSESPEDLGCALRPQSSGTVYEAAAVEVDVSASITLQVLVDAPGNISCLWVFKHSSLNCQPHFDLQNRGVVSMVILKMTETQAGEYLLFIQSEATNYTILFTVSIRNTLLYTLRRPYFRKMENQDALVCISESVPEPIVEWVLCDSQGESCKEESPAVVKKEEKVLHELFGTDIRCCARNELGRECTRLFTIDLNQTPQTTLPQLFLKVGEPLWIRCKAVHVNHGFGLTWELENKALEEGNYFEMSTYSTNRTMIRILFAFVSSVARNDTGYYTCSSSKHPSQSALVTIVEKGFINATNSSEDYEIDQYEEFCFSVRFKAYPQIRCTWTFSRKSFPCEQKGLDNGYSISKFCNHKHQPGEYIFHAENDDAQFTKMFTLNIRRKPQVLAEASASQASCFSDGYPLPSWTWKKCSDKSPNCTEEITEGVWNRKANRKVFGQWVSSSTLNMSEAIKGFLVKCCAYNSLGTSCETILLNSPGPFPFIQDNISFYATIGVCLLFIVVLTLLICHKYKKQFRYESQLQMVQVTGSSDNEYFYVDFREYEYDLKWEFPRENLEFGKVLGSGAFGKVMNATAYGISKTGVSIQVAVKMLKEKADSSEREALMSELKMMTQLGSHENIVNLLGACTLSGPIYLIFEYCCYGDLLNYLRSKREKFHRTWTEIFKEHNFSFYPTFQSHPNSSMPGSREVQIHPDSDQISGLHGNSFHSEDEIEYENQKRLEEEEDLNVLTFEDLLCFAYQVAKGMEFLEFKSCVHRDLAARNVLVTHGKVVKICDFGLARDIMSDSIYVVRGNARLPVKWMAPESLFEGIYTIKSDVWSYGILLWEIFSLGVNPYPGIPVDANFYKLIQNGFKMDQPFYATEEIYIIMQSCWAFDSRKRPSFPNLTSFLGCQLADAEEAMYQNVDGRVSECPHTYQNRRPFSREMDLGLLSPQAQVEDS

Sequence of IRAK1 (P51617 whole entry): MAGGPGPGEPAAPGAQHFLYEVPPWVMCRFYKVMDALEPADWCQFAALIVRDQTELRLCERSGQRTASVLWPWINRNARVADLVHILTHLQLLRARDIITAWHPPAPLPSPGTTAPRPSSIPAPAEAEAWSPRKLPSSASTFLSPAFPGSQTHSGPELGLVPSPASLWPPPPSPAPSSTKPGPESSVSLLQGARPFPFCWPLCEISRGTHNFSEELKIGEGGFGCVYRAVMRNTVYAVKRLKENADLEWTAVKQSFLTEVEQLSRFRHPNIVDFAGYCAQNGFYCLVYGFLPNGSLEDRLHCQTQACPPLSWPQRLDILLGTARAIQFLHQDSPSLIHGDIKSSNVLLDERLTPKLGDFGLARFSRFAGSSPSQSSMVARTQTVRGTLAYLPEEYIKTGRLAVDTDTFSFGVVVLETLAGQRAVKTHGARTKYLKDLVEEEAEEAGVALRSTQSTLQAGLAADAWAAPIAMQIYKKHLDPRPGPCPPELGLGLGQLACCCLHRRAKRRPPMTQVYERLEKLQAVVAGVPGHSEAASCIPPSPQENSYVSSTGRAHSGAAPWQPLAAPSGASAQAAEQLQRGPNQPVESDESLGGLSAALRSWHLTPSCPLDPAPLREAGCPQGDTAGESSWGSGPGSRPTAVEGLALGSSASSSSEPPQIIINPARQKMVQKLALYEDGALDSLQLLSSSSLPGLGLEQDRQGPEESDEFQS

Compound | Kd [1] [nM] | IC50 [2] [nM] | IC50 [3] [nM] | Kd [4] [nM]
CC(O)(c1cn2c(-c3ccnc(N[C@H]4CNCC[C@@H]4F)n3)cnc2cn1)C(F)(F)F (single isomer, unassigned) [Compound 72] | 1.8 | 55 | 3 | 7.4
F[C@H]1CCNC[C@@H]1Nc1cncc(-c2cnc3cc(OC4CC4)ccn23)n1 [Compound 12, 6-(7-cyclopropoxyimidazo[1,2-a]pyridin-3-yl)-N-((3S,4S)-4-fluoropiperidin-3-yl)pyrazin-2-amine] | 0.046 | 34 | 18 | 4.7
COc1cc2ncc(-c3cncc(N[C@H]4CNC[C@@H]4F)n3)n2nc1C1CC1 [Compound 22, 6-(6-cyclopropyl-7-methoxyimidazo[1,2-b]pyridazin-3-yl)-N-((3S,4S)-4-fluoropyrrolidin-3-yl)pyrazin-2-amine] | 0.078 |  | 61 | 5.6
COc1cc2ncc(-c3cncc(N[C@H]4CNCC[C@@H]4F)n3)n2nc1C1CC1 [Compound 24, 6-(6-cyclopropyl-7-methoxyimidazo[1,2-b]pyridazin-3-yl)-N-((3S,4S)-4-fluoropiperidin-3-yl)pyrazin-2-amine] | 0.048 |  | 40 | 0.51
COc1cc2ncc(-c3ccnc(N[C@@H]4CCCNC4)n3)n2cc1C(C)(C)O [Compound 44, (R)-2-(7-methoxy-3-(2-(piperidin-3-ylamino)pyrimidin-4-yl)imidazo[1,2-a]pyridin-6-yl)propan-2-ol] | 0.092 | 11 | 1 | 0.97
COc1cc2ncc(-c3ccnc(N[C@H]4CNC[C@@H]4F)n3)n2nc1C1CC1 [Compound 49, 4-(6-cyclopropyl-7-methoxyimidazo[1,2-b]pyridazin-3-yl)-N-((3S,4S)-4-fluoropyrrolidin-3-yl)pyrimidin-2-amine] | 0.085 | 24 | 11 | 0.61
COc1cc2ncc(-c3ccnc(N[C@@H]4CCCNC4)n3)n2nc1C1CC1 [Compound 50, (R)-4-(6-cyclopropyl-7-methoxyimidazo[1,2-b]pyridazin-3-yl)-N-(piperidin-3-yl)pyrimidin-2-amine] |  | 17 | 63 | 
COc1cc2ncc(-c3ccnc(N[C@H]4CNCC[C@@H]4F)n3)n2nc1C1CC1 [Compound 51, 4-(6-cyclopropyl-7-methoxyimidazo[1,2-b]pyridazin-3-yl)-N-((3S,4S)-4-fluoropiperidin-3-yl)pyrimidin-2-amine] | 0.08 | 6 | 11 | 0.62
